Source: PMC7649837, “Protein–fragment complex structures derived by NMR molecular replacement” (RSC Medicinal Chemistry, 2020)

molecular target: PIN1 (Homo sapiens, UniProt Q13526); assay: NMR methyl chemical shift perturbation titration; intermolecular NOEs and NMR2 complex structure; assay type: binding
Sequence (Q13526 whole entry): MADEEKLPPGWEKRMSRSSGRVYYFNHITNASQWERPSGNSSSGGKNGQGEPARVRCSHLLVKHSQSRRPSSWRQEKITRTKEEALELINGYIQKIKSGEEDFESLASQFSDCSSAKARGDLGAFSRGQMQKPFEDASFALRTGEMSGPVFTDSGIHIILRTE

Q: Which Kd does the source give for `Cc1cccc(-c2nc(C(=O)O)c(C)[nH]2)c1` [compound 1] here?
A: The Kd was 260 µM.

Q: How did the Kd turn out when `Cc1nc(-c2cccc(Cl)c2)[nH]c1C(=O)O` [compound 2] was run?
A: The Kd was 670 µM.

Q: For `Cc1nc(-c2cccc(C(F)(F)F)c2)[nH]c1C(=O)O` [compound 3], which Kd is on record?
A: Its Kd is 6700 µM.
